In the supplement of paper PMC8671470:

Columns and labels:
Settings in all cases: 72 h
HL-60 [1] = assay: area under dose-response curve (viability, 1 nM-10 uM) (fraction (0-1)); higher = more sensitive
How it was run: (§1)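 Area under the curve, where listed, was derived from four-parameter log-logistic fits with drc and PharmacoGx. These fits used CellTiter-Glo viability from HL-60 cells in RPMI 1640 with 10% FBS, normalised to DMSO wells and wells holding 10 μM proteasome inhibitor. The full library was rescreened on 384-well plates in duplicate at five tenfold concentrations, 1–10,000 nM, with DMSO or 100 nM of one of three metabolic inhibitors, for 72 h at 37 °C, 5% CO2.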

HL-60 [2] = assay: cell viability (% survival relative to DMSO control); higher = less cytotoxic
How it was run: as §1

[3] = tested on: myeloid leukemia patient primary cells Pat.3; assay: cell viability (% survival relative to DMSO control); higher = less cytotoxic
How it was run: (§2)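 Thawed, Ficoll-purified mononuclear cells from AML or CML patients in RPMI 1640 with 10% FBS were seeded at 10,000 cells/well on 384-well plates pre-printed with 70 compounds at five tenfold concentrations, 1–10,000 nM, in duplicate, for 72 h. Viability was read by CellTiter-Glo and normalised to DMSO and 10 μM proteasome-inhibitor wells. Where given, area under the curve came from four-parameter log-logistic fits (drc, PharmacoGx R packages).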

[4] = tested on: myeloid leukemia patient primary cells Pat.14; assay: as above
How it was run: as §2

[5] = tested on: myeloid leukemia patient primary cells Pat.4; assay: as above
How it was run: as §2

[6] = tested on: myeloid leukemia patient primary cells Pat.8; assay: as above
How it was run: as §2

[7] = tested on: myeloid leukemia patient primary cells Pat.13; assay: as above
How it was run: as §2

[8] = tested on: myeloid leukemia patient primary cells Pat.6; assay: as above
How it was run: as §2

[9] = tested on: myeloid leukemia patient primary cells Pat.12; assay: as above
How it was run: as §2

[10] = tested on: myeloid leukemia patient primary cells Pat.11; assay: as above
How it was run: as §2

[11] = tested on: myeloid leukemia patient primary cells Pat.5; assay: as above
How it was run: as §2

[12] = tested on: myeloid leukemia patient primary cells Pat.1; assay: as above
How it was run: as §2

[13] = tested on: myeloid leukemia patient primary cells Pat.2; assay: as above
How it was run: as §2

[14] = tested on: myeloid leukemia patient primary cells Pat.15; assay: as above
How it was run: as §2

[15] = tested on: myeloid leukemia patient primary cells Pat.7; assay: as above
How it was run: as §2

[16] = tested on: myeloid leukemia patient primary cells Pat.10; assay: as above
How it was run: as §2

[17] = tested on: myeloid leukemia patient primary cells Pat.9; assay: as above
How it was run: as §2

O=C(/C=C/c1ccc(O)c(O)c1)OCCc1ccccc1 [Caffeic acid phenethyl ester]
Settings	area under dose-response curve, co-treatment: AZD3965 100 nM	area under dose-response curve, co-treatment: DMSO vehicle	area under dose-response curve, co-treatment: GSK2194069 100 nM	area under dose-response curve, co-treatment: pictilisib 100 nM	cell viability, 1 nM [%]	cell viability, 10 nM [%]	cell viability, 100 nM [%]	cell viability, 1000 nM [%]	cell viability, 10000 nM [%]
HL-60 [1]	0.0691	0.0547	0.0593	0.138	–	–	–	–	–
[3]	–	–	–	–	92	83.1	39.1	41.7	3.62
[4]	–	–	–	–	95.7	83.5	80.5	48.9	16.3
[5]	–	–	–	–	89.5	87.7	86.2	16.7	2.41
[6]	–	–	–	–	97.7	80.9	85.1	29	5.61
[7]	–	–	–	–	> 100	91	95.8	87.2	42
[8]	–	–	–	–	98	93.6	96.9	65.7	35.2
[9]	–	–	–	–	> 100	95.5	> 100	57.4	34.5
[10]	–	–	–	–	96.1	97.8	> 100	73.5	38
[11]	–	–	–	–	65.2	69.6	55.9	4.78	21.6
[12]	–	–	–	–	98.5	93	98.4	63.3	44
[13]	–	–	–	–	95.4	98.6	> 100	89.3	64
[14]	–	–	–	–	96.5	85.8	96.1	64.9	40.5
[15]	–	–	–	–	74.4	79.4	78.2	16.3	< 0
[16]	–	–	–	–	88.2	63.9	33	31	83.7
[17]	–	–	–	–	68.9	84.8	8.63	11.1	11.8

cell viability [%], HL-60 [2]
Settings	0.001 µM	0.01 µM	0.1 µM	1 µM	10 µM
co-treatment: AZD3965 100 nM	98.9	99.96	104	103	27.4
co-treatment: DMSO vehicle	76	95.8	98.75	98.83	33.3
co-treatment: GSK2194069 100 nM	93.3	100.7	102	97.1	33.1
co-treatment: pictilisib 100 nM	101	102	96.7	81.5	22.1

CCN(CC)C(=S)SSC(=S)N(CC)CC [Disulfiram]
Settings	area under dose-response curve, co-treatment: AZD3965 100 nM	area under dose-response curve, co-treatment: DMSO vehicle	area under dose-response curve, co-treatment: GSK2194069 100 nM	area under dose-response curve, co-treatment: pictilisib 100 nM	cell viability, 1 nM [%]	cell viability, 10 nM [%]	cell viability, 100 nM [%]	cell viability, 1000 nM [%]	cell viability, 10000 nM [%]
HL-60 [1]	< 0.0301	< 0.0301	< 0.0301	< 0.0301	–	–	–	–	–
[3]	–	–	–	–	> 100	99.2	99.7	84.6	1.56
[4]	–	–	–	–	89.1	93.9	87.8	60.5	21.4
[5]	–	–	–	–	94.9	90.7	96.1	0.934	6.79
[6]	–	–	–	–	61.6	76.7	39.6	0.473	1.14
[7]	–	–	–	–	94.8	91	79.5	< 0	4.12
[8]	–	–	–	–	99.6	94.6	80.5	2.26	4.13
[9]	–	–	–	–	98	95.2	54	3.19	< 0
[10]	–	–	–	–	99.9	99.2	98.7	2.1	3.25
[11]	–	–	–	–	76.6	76.8	74.5	26.1	5.84
[12]	–	–	–	–	95	82.2	79.8	1.11	0.116
[13]	–	–	–	–	95.6	93.9	39.1	0.978	3.7
[14]	–	–	–	–	96.8	87.7	9.1	1.3	0.0644
[15]	–	–	–	–	83.4	86.8	61.1	71.7	< 0
[16]	–	–	–	–	85	72.2	47.8	56.6	> 100
[17]	–	–	–	–	71.8	> 100	86.3	33.6	20.9

cell viability [%], HL-60 [2]
Settings	0.001 µM	0.01 µM	0.1 µM	1 µM	10 µM
co-treatment: AZD3965 100 nM	104	101	98.7	96.7	101
co-treatment: DMSO vehicle	100.9	100.4	105	94	98.66
co-treatment: GSK2194069 100 nM	100	95.7	102	93.1	102
co-treatment: pictilisib 100 nM	105.2	86.4	107	71.25	102

c1cc(-c2cnn3cc(-c4ccc(OCCN5CCCCC5)cc4)cnc23)ccn1 [Dorsomorphin]
Settings	area under dose-response curve, co-treatment: AZD3965 100 nM	area under dose-response curve, co-treatment: DMSO vehicle	area under dose-response curve, co-treatment: GSK2194069 100 nM	area under dose-response curve, co-treatment: pictilisib 100 nM	cell viability, 1 nM [%]	cell viability, 10 nM [%]	cell viability, 100 nM [%]	cell viability, 1000 nM [%]	cell viability, 10000 nM [%]
HL-60 [1]	0.0329	0.0501	< 0.0301	0.112	–	–	–	–	–
[3]	–	–	–	–	64.7	99.1	67.9	86.3	34.1
[4]	–	–	–	–	48.1	100	53	84.5	60.8
[5]	–	–	–	–	86.7	91.5	90.1	56.8	35.9
[6]	–	–	–	–	77.5	99	92.6	81.6	68.6
[7]	–	–	–	–	88.2	94.5	64.7	50.7	48.6
[8]	–	–	–	–	84.6	> 100	73.2	83.4	72.5
[9]	–	–	–	–	98.5	97.1	98.5	92	91.6
[10]	–	–	–	–	95.2	> 100	90.4	79.8	43.8
[11]	–	–	–	–	3.45	81.3	5.46	1.33	10.2
[12]	–	–	–	–	76.7	93.2	78.1	65.8	27.8
[13]	–	–	–	–	95.8	99.8	92.5	> 100	59.4
[14]	–	–	–	–	88.3	90.6	95.6	92.5	24.9
[15]	–	–	–	–	25.4	95.4	65	89.5	30.9
[16]	–	–	–	–	17.6	76.4	61.4	27.6	38.4
[17]	–	–	–	–	41.6	> 100	11.5	41.3	18.7

cell viability [%], HL-60 [2]
Settings	0.001 µM	0.01 µM	0.1 µM	1 µM	10 µM
co-treatment: AZD3965 100 nM	101	101	99.7	99.9	56.2
co-treatment: DMSO vehicle	99.8	102	99.9	95.21	63.4
co-treatment: GSK2194069 100 nM	108	102	104	105	63.4
co-treatment: pictilisib 100 nM	93.5	99.7	94.8	82.3	34
